18 compounds from patent publication US4224448A, “2'-(5'-Nitrofuryl) substituted quinolines” (priority 1966, dated 1980) can be followed below.

In brackets after ≈: the same amount, converted by molar mass. Like-named read-outs stand apart in the source and are kept apart here.

What all share (assay): Minimum inhibitory concentration, conventional tube dilution method
Holding throughout (type): cell-based

Assay [1] deals with Staph. aureus. The following applies: Staphylococcus aureus; gram-positive; tube dilution, 37 degrees, 24 hours; between 1 and 6 strains; mg/100 cc; decimal comma; read-out: Minimal Inhibitory Concentration, Staph. aureus. The source says:
(§1) The activity of some of the new nitrofuryl quinoline derivatives of the present invention is exemplified in Table 1 against a gram-positive (Staph. aureus), a gram-negative (Salmonella) bacterium and a fungus (Candida albicans). Table 1 indicates the minimum inhibitory concentration of the compound under reference in mg/100 cc required in order to inhibit the growth between 1 and 6 strains of each type. The measurements have been carried out by the conventional tube dilution method at 37 degrees after 24 hours.

The test system of assay [2] is Candida albicans. The following applies: fungus, tube dilution, 37 degrees, 24 hours, between 1 and 6 strains, mg/100 cc, decimal comma, read-out: Minimal Inhibitory Concentration, Cand. Alb.
Text: as §1

The subject of assay [3] is Salmonella. The following applies: read-out: Minimal Inhibitory Concentration, Salm.
Text: as §1

Where [4] appears, read: gram-negative, tube dilution, 37 degrees, 24 hours, between 1 and 6 strains, mg/100 cc, decimal comma.

With `CCc1ccc2c(c1)c(-c1ccc([N+](=O)[O-])o1)cc(CC)[n+]2[O-]` [O C2 H5 H NF H C2 H5 H H], the MIC was 0.1 µg/mL (≈ 0.32 µM) in assay [1], 5 to 10 µg/mL (≈ 16 to 32 µM) in assay [2] and above 10 µg/mL in assay [3] (setting [4]).
`CCc1cc(-c2ccc([N+](=O)[O-])o2)c2ccc(C)cc2[n+]1[O-]` [O C2 H5 H NF H H CH3 H]: the MIC in assay [1] is 0.5 µg/mL (≈ 1.68 µM); in assay [2], below 5 µg/mL; in assay [3] (setting [4]), 25 to 50 µg/mL (≈ 83.8 to 168 µM).
For `CCc1cc(-c2ccc([N+](=O)[O-])o2)c2ccccc2[n+]1[O-]` [O C2 H5 H NF H H H H], in that order: 0.3 µg/mL (≈ 1.06 µM), 3 µg/mL (≈ 10.6 µM) and 25 to 50 µg/mL (≈ 87.9 to 176 µM).
With `CCCc1cc(-c2ccc([N+](=O)[O-])o2)c2cc(C)ccc2[n+]1[O-]` [O C3 H7 H NF H CH3 H H], the MIC in assay [1] was 1 to 5 µg/mL (≈ 3.2 to 16 µM); in assay [2], 5 to 25 µg/mL (≈ 16 to 80 µM); in assay [3] (setting [4]), above 50 µg/mL.
On to `CCc1ccc2c(c1)c(-c1ccc([N+](=O)[O-])o1)cc(C)[n+]2[O-]` [O CH3 H NF H C2 H5 H H], for which the MIC was 0.5 µg/mL (≈ 1.68 µM) in assay [1], 2 to 5 µg/mL (≈ 6.7 to 16.8 µM) in assay [2] and 25 µg/mL (≈ 83.8 µM) in assay [3] (setting [4]).
For `Cc1ccc2c(c1)c(-c1ccc([N+](=O)[O-])o1)cc(C)[n+]2[O-]` [O CH3 H NF H CH3 H H], in that order: 0.1 µg/mL (≈ 0.352 µM), 2 to 5 µg/mL (≈ 7.04 to 17.6 µM) and above 25 µg/mL.
For `Cc1cc(-c2ccc([N+](=O)[O-])o2)c2ccc(Cl)cc2[n+]1[O-]` [O CH3 H NF H H Cl H, 2-methyl-4-[2'-(5'-nitrofuryl)]-7-chloro-quinoline N-oxide], in that order: 1 µg/mL (≈ 3.28 µM), 2 to 5 µg/mL (≈ 6.56 to 16.4 µM) and above 25 µg/mL.
Turning to `Cc1cc(-c2ccc([N+](=O)[O-])o2)c2ccccc2[n+]1[O-]` [O CH3 H NF H H H H, 2-methyl-4-[2'-(5'-nitrofuryl)] quinoline N-oxide], the values for the MIC in assay [1], in assay [2] and in assay [3] (setting [4]) were 0.2 to 0.5 µg/mL (≈ 0.74 to 1.85 µM), 1 µg/mL (≈ 3.7 µM) and 10 µg/mL (≈ 37 µM), respectively.
In the case of `CCOc1ccc2c(-c3ccc([N+](=O)[O-])o3)cc(C)[n+]([O-])c2c1` [O CH3 H NF H H OC2 H5 H], the MIC in assay [1] is 0.05 to 0.1 µg/mL (≈ 0.159 to 0.318 µM); in assay [2] it was 10 µg/mL (≈ 31.8 µM); in assay [3] (setting [4]), 10 to 50 µg/mL (≈ 31.8 to 159 µM).
For `COc1ccc2c(-c3ccc([N+](=O)[O-])o3)cc(C)[n+]([O-])c2c1` [O CH3 H NF H H OCH3 H, 2-methyl-4-[2'-(5'-nitrofuryl)]-7-methoxy quinoline N-oxide], in that order: 0.1 µg/mL (≈ 0.333 µM), 0.5 µg/mL (≈ 1.67 µM) and 5 µg/mL (≈ 16.7 µM).
For `Cc1cc(-c2ccc([N+](=O)[O-])o2)c2cc3ccccc3cc2[n+]1[O-]` [O CH3 H NF H drawing 13 H], in that order: 0.5 to 1 µg/mL (≈ 1.56 to 3.12 µM), 50 µg/mL (≈ 156 µM) and above 50 µg/mL.
For `O=C(O)c1cc(-c2ccc([N+](=O)[O-])o2)c2ccccc2[n+]1[O-]` [O COOH H NF H H H H], in that order: 0.5 µg/mL (≈ 1.67 µM), 10 to 25 µg/mL (≈ 33.3 to 83.3 µM) and 50 µg/mL (≈ 167 µM).
In the case of `O=[N+]([O-])c1ccc(-c2cc[n+]([O-])c3ccccc23)o1` [O H H NF H H H H], the values for the MIC in assay [1], in assay [2] and in assay [3] (setting [4]) were 0.1 to 0.5 µg/mL (≈ 0.39 to 1.95 µM), 0.5 µg/mL (≈ 1.95 µM) and 5 µg/mL (≈ 19.5 µM), respectively.
For `COc1ccc2c(-c3ccc([N+](=O)[O-])o3)cc[n+]([O-])c2c1` [O H H NF H H OCH3 H, 4-[2'-(5'-nitrofuryl)]-7-methoxy quinoline N-oxide], the MIC in assay [1] was 0.01 to 0.05 µg/mL (≈ 0.0349 to 0.175 µM); in assay [2], 0.5 µg/mL (≈ 1.75 µM); in assay [3] (setting [4]) it was 5 µg/mL (≈ 17.5 µM).
For `Cc1cc(-c2ccc([N+](=O)[O-])o2)[n+]([O-])c2ccccc12` [O NF H CH3 H H H H], in that order: 1 µg/mL (≈ 3.7 µM), 2 to 5 µg/mL (≈ 7.4 to 18.5 µM) and 10 µg/mL (≈ 37 µM).
Regarding `CCCc1cc(-c2ccc([N+](=O)[O-])o2)c2ccc(C)cc2[n+]1[O-]` [OC3 H7 H NF H H CH3 H], the MIC was 1 µg/mL (≈ 3.2 µM) in assay [1], above 50 µg/mL in assay [2] and above 50 µg/mL in assay [3] (24 h).
Take `O=C(c1cc(-c2ccc([N+](=O)[O-])o2)c2ccccc2n1)N1CCOCC1` [drawing 11 H NF H H H H]: the results for the MIC in assay [1], in assay [2] and in assay [3] (setting [4]) were 0.1 to 0.5 µg/mL (≈ 0.283 to 1.42 µM), 50 µg/mL (≈ 142 µM) and 25 to 50 µg/mL (≈ 70.8 to 142 µM), respectively.
With `O=[N+]([O-])c1ccc(-c2cc(CC(O)C(Cl)(Cl)Cl)nc3ccccc23)o1` (stereo not drawn) [drawing 12 H NF H H H H], the figures for the MIC in assay [1], in assay [2] and in assay [3] (setting [4]) were 0.5 µg/mL (≈ 1.24 µM), above 50 µg/mL and above 50 µg/mL, respectively.
